In patent US7741352B2, “KCNQ channel modulating compounds and their pharmaceutical use” (Neurosearch A/S, priority 2003, dated 2010):

melting point	SMILES
193 to 196 °C (dec.)	O=C(O)c1ccc(OCc2cccc(-c3ccc4[nH]ccc4c3)c2)cc1O [Compound 3-34, 2-Hydroxy-4-[3-(1H-indol-5-yl)-benzyloxy]-benzoic acid]
189 to 195 °C (dec.)	O=C(O)c1ccc(OCc2cccc(-c3cccnc3)c2)cc1O [Compound 3-27, 2-Hydroxy-4-(3-pyridin-3-yl-benzyloxy)-benzoic acid]
202 to 206 °C (dec.)	O=C(O)c1ccc(OCc2ccc(-c3ccoc3)cc2)cc1O [Compound 3-4, 4-(4-Furan-3-yl-benzyloxy)-2-hydroxy-benzoic acid]
153 to 157 °C (dec.)	COc1cc(-c2cccc(COc3ccc(C(=O)O)c(O)c3)c2)ccc1O [Compound 3-26, 2-Hydroxy-4-(4′-hydroxy-3′-methoxy-biphenyl-3-ylmethoxy)-benzoic acid]
211 to 214 °C (dec.)	O=C(O)c1ccc(OCc2ccc(-c3cccc([N+](=O)[O-])c3)cc2)cc1O [Compound 3-10, 2-Hydroxy-4-(3′-nitro-biphenyl-4-ylmethoxy)-benzoic acid]
188 to 192 °C (dec.)	O=C(O)c1ccc(OCc2cccc(-c3ccc4c(c3)OCCCO4)c2)cc1O [Compound 3-35, 4-[3-(3,4-Dihydro-2H-benzo[b][1,4]dioxepin-7-yl)-benzyloxy]-2-hydroxy-benzoic acid]
143 to 145 °C	O=C(Nc1ccc(OCc2ccc(F)cc2)cc1O)C(F)(F)F [Compound 9-3, 2,2,2-trifluoro-N-[4-(4-fluoro-benzyloxy)-2-hydroxy-phenyl]-acetamide]
168 to 170 °C	O=C(O)c1ccc(OCCCCCCC(O)CO)cc1O (centres unmarked) [Compound 2-6, 4-(7,8-Dihydroxyoctyloxy)-2-hydroxy-benzoic acid]
139 °C	O=C(O)c1ccc(OCCCCCCO)cc1O [Compound 1-8, 2-Hydroxy-4-(6-hydroxyhexyloxy) benzoic acid]
190 to 194 °C (dec.)	O=C(O)c1ccc(OCc2cccc(-c3ccc4ccccc4c3)c2)cc1O [Compound 3-38, 2-Hydroxy-4-(3-naphthalen-2-yl-benzyloxy)-benzoic acid]
201 to 205 °C (dec.)	O=C(O)c1ccc(OCc2ccc(-c3ccco3)cc2)cc1O [Compound 3-3, 4-(4-Furan-2-yl-benzyloxy)-2-hydroxy-benzoic acid]
209 to 211 °C (dec.)	O=C(O)c1ccc(OCc2ccc(-c3cccnc3)cc2)cc1O [Compound 3-1, 2-Hydroxy-4-(4-pyridin-3-yl-benzyloxy)-benzoic acid]
103 to 115 °C (dec.)	COc1cccc(-c2cccc(COc3ccc(C(=O)O)c(O)c3)c2)c1 [Compound 3-22, 2-Hydroxy-4-(3′-methoxy-biphenyl-3-ylmethoxy)-benzoic acid]
184 °C (dec.)	O=C(O)c1ccc(OCc2cccc(-c3ccccc3)c2)cc1O [Compound 3-18, 4-(Biphenyl-3-ylmethoxy)-2-hydroxy-benzoic acid]
196 to 204 °C (dec.)	CN(C)S(=O)(=O)c1ccc(-c2cccc(COc3ccc(C(=O)O)c(O)c3)c2)cc1 [Compound 3-39, 4-(4′-Dimethylsulfamoyl-biphenyl-3-ylmethoxy)-2-hydroxy-benzoic acid]
179 to 181 °C (dec.)	O=C(O)c1ccc(OC2CCOCC2)cc1O [Compound 4-1, 2-hydroxy-4-(tetrahydro-pyran-4-yloxy)-benzoic acid]
173 to 180 °C (dec.)	CC(=O)c1cccc(-c2cccc(COc3ccc(C(=O)O)c(O)c3)c2)c1 [Compound 3-20, 4-(3′-Acetyl-biphenyl-3-ylmethoxy)-2-hydroxy-benzoic acid]
210 to 215 °C (dec.)	CC(=O)c1ccc(-c2cccc(COc3ccc(C(=O)O)c(O)c3)c2)s1 [Compound 3-29, 4-[3-(5-Acetyl-thiophen-2-yl)-benzyloxy]-2-hydroxy-benzoic acid]
197 to 200 °C (dec.)	COc1ccncc1-c1ccc(COc2ccc(C(=O)O)c(O)c2)cc1 [Compound 3-5, 2-Hydroxy-4-[4-(4-methoxy-pyridin-3-yl)-benzyloxy]-benzoic acid]
143 to 144 °C	C=CCCOc1ccc(C(=O)O)c(O)c1 [Compound 1-5, 4-But-3-enyloxy-2-hydroxy-benzoic acid]
266 °C (dec.)	O=C(Nc1ccc(C(=O)O)c(O)c1)c1ccc(-c2ccccc2)cc1 [Compound 7-2, 4-[(Biphenyl-4-carbonyl)-amino]-2-hydroxy benzoic acid]
> 275 °C	O=C(Oc1ccc(C(=O)O)c(O)c1)c1ccc(-c2ccccc2)cc1 [Compound 5-1, 4-(4-Phenyl-benzoyloxy)-2-hydroxy benzoic acid]
100 to 102 °C	CCCCCCCCOc1ccc(C(=O)O)c(O)c1 [Compound 1-3, 2-Hydroxy-4-octyloxy-benzoic acid]
198 to 199 °C	O=C(c1ccccc1)c1ccc(COc2ccc(C(=O)O)c(O)c2)cc1 [Compound 1-20, 4-(4-Benzoyl-benzyloxy)-2-hydroxy benzoic acid]
94 to 97 °C	CCCCCCCCCc1ccc(C(=O)O)c(O)c1 [Compound 11-1, 4-Nonyl salicylic acid]

melting point	SMILES
220 °C (dec.)	N#Cc1ccccc1-c1ccc(COc2ccc(C(=O)O)c(O)c2)cc1 [Compound 1-17, 4-(2′-Cyano-biphenyl-4-ylmethoxy)-2-hydroxy-benzoic acid]
196 to 197 °C	N#Cc1ccc(NCc2ccc(-c3ccccc3)cc2)cc1O [Compound 12-16, 4-[(Biphenyl-4-ylmethyl)-amino]-2-hydroxy-benzonitrile]
175 °C (dec.)	O=C(O)c1ccc(NCc2ccc(F)cc2)cc1O [Compound 6-4, 4-(4-Fluoro-benzylamino)-2-hydroxy-benzoic acid]
231 to 233 °C (dec.)	CC(=O)Nc1cccc(-c2ccc(COc3ccc(C(=O)O)c(O)c3)cc2)c1 [Compound 3-12, 4-(3′-Acetylamino-biphenyl-4-ylmethoxy)-2-hydroxy-benzoic acid]
119 to 121 °C	O=C(O)c1ccc(OCCCCCCCCO)cc1O [Compound 1-9, 2-Hydroxy-4-(8-hydroxy-octyloxy) benzoic acid]
152 °C	O=C(O)c1ccc(OCCCCC(O)CO)cc1O (centres unmarked) [Compound 2-3, 4-(5,6-Dihydroxhexoxy)-2-hydroxy-benzoic acid]
155 to 176 °C (dec.)	Cc1noc(C)c1-c1cccc(COc2ccc(C(=O)O)c(O)c2)c1 [Compound 3-40, 4-[3-(3,5-Dimethyl-isoxazol-4-yl)-benzyloxy]-2-hydroxy-benzoic acid]
151 to 153 °C	O=C(O)c1ccc(OCC(O)CO)cc1O (centres unmarked) [Compound 2-1, 4-(2,3-Dihydroxypropoxy)-2-hydroxy-benzoic acid]
189 °C (dec.)	O=C(O)c1ccc(NCc2cccc([N+](=O)[O-])c2)cc1O [Compound 6-1, 2-Hydroxy-4-(3-nitro-benzylamino)-benzoic acid]
154 °C	CC(=O)Nc1ccc(CNc2ccc(C(=O)O)c(O)c2)cc1 [Compound 6-3, 4-(4-Acetylamino-benzylamino)-2-hydroxy-benzoic acid]
222 to 226 °C (dec.)	O=C(O)c1ccc(OCc2ccc(-c3ccc4c(c3)OCO4)cc2)cc1O [Compound 3-14, 4-[3′,4′-(Methylenedioxy)-biphenyl-4-ylmethoxy]-2-hydroxy-benzoic acid]
97 to 106 °C	CC(C)=CCC/C(C)=C/COc1ccc(C(=O)O)c(O)c1 [Compound 1-13, 4-(3,7-Dimethyl-octa-2,6-dienyloxy)-2-hydroxybenzoic acid]
222 to 226 °C (dec.)	O=C(O)c1ccc(OCc2ccc(-c3ccc(CO)cc3)cc2)cc1O [Compound 3-16, 2-Hydroxy-4-(4′-hydroxymethyl-biphenyl-4-ylmethoxy)-benzoic acid]
114 to 116 °C	CCCCCCCCOc1ccc(NC(=O)C(F)(F)F)c(O)c1 [Compound 9-1, 2,2,2-trifluoro-N-(2-hydroxy-4-octyloxy-phenyl)-acetamide]
211 to 227 °C (dec.)	O=C(O)c1cccc(-c2cccc(COc3ccc(C(=O)O)c(O)c3)c2)c1 [Compound 3-21, 3′-(4-Carboxy-3-hydroxy-phenoxymethyl)-biphenyl-3-carboxylic acid]
191 to 197 °C	O=C(O)c1ccc(OCc2cccc(Br)c2)cc1O [Compound 1-23, 4-(3-Bromo-benzyloxy)-2-hydroxy-benzoic acid]
170 to 175 °C (dec.)	O=C(O)c1ccc(OCc2cccc(-c3ccc4c(c3)OCCO4)c2)cc1O [Compound 3-36, 4-[3-(2,3-Dihydro-benzo[1,4]dioxin-6-yl)-benzyloxy]-2-hydroxy-benzoic acid]
229 °C (dec.)	O=C(O)c1ccc(OCc2ccc(-n3cncn3)cc2)cc1O [Compound 1-2, 2-Hydroxy-4-(4-[1,2,4]triazol-1-yl-benzyloxy)-benzoic acid]
142 to 146 °C	CCCCCCCCOc1ccc(-c2nnn[nH]2)c(O)c1 [Compound 12-6, 5-Octyloxy-2-(1H-tetrazol-5-yl)-phenol]
249 to 255 °C (dec.)	O=C(O)c1cccc(-c2ccc(COc3ccc(C(=O)O)c(O)c3)cc2)c1 [Compound 3-7, 4′-(4-Carboxy-3-hydroxy-phenoxymethyl)-biphenyl-3-carboxylic acid]
105 °C	C=CCCCCOc1ccc(C(=O)O)c(O)c1 [Compound 1-7, 4-Hex-5-enyloxy-2-hydroxy-benzoic acid]
194 to 197 °C (dec.)	O=C(O)c1ccc(OCc2cccc(-c3cc(Cl)cc(Cl)c3)c2)cc1O [Compound 3-31, 4-(3′,5′-Dichloro-biphenyl-3-ylmethoxy)-2-hydroxy-benzoic acid]
216 to 219 °C (dec.)	O=C(O)c1ccc(OCc2ccc(-c3ccccc3)cc2)cc1O [Compound 1-16, 4-(Biphenyl-4-ylmethoxy)-2-hydroxy-benzoic acid]
98 to 101 °C	CCCCCCCCOc1ccc(NS(C)(=O)=O)c(O)c1 [Compound 9-2, N-(2-hydroxy-4-octyloxy-phenyl)-methanesulfonamide]

SMILES	melting point
O=C(O)c1ccc(OCCC(O)CO)cc1O (centres unmarked) [Compound 2-2, 4-(3,4-Dihydroxybutoxy)-2-hydroxy-benzoic acid]	140 to 148 °C
